# Results published in ChEMBL document CHEMBL4507269, “Data for DCP probe BAY-386” (2021).
# What was measured:
# [1] = target: Epidermal growth factor receptor (Homo sapiens) (UniProt P00533); assay: Inhibition of Epidermal Growth Factor (EGF) at 10 µM in the Eurofins-Panlabs radioligand binding assay (Eurofins_assay_225510); conditions: Compound concentration 10.0 uM
# [2] = target: T1, GABA-A receptor; anion channel (Rattus norvegicus) (UniProt O09028+P15431+P18506+P18508+P19969+P20236+P23574+P23576+P28471+P28473+P30191+P62813+P63079+P63138+Q91ZM7+Q9ES14); assay: Inhibition of GABAA, Muscimol, Central at 10 µM in the Eurofins-Panlabs radioligand binding assay (Eurofins_assay_226500); type: protein-complex assay; conditions: Compound concentration 10.0 uM
# [3] = target: Glucocorticoid receptor (Homo sapiens) (UniProt P04150); assay: Glucocorticoid Eurofins-Panlabs radioligand binding assay; conditions: Compound concentration 10.0 uM
# [4] = target: Glutamate receptor ionotropic, kainate (Rattus norvegicus) (UniProt P22756+Q01812+P42260+P42264+Q63273); assay: Inhibition of Glutamate, Kainate at 10 µM in the Eurofins-Panlabs radioligand binding assay (Eurofins_assay_232700); conditions: Compound concentration 10.0 uM
# [5] = species: Rattus norvegicus; assay: Inhibition of Glutamate, NMDA, Phencyclidine at 10 µM in the Eurofins-Panlabs radioligand binding assay (Eurofins_assay_233000); type: protein-complex assay; conditions: Compound concentration 10.0 uM
# [6] = target: Cysteinyl leukotriene receptor 1 (Homo sapiens) (UniProt Q9Y271); assay: Inhibition of Leukotriene, Cysteinyl CysLT1 at 10 µM in the Eurofins-Panlabs radioligand binding assay (Eurofins_assay_250460); set-up: ligand concentration 0.3 nM, non-specific ligand with concentration 0.3 µM Leukotriene D4, incubation time 30 min, incubation temperature 25 °C; conditions: Compound concentration 10.0 uM
# [7] = target: Melatonin receptor type 1A (Homo sapiens) (UniProt P48039); assay: Inhibition of Melatonin MT1 at 10 µM in the Eurofins-Panlabs radioligand binding assay (Eurofins_assay_251600); set-up: ligand concentration 0.05 nM; conditions: Compound concentration 10.0 uM
# [8] = target: Neuropeptide Y receptor type 1 (Homo sapiens) (UniProt P25929); assay: Inhibition of Neuropeptide Y Y1 at 10 µM in the Eurofins-Panlabs radioligand binding assay (Eurofins_assay_257010); conditions: Compound concentration 10.0 uM
# [9] = species: Homo sapiens; assay: Inhibition of Nicotinic Acetylcholine at compound concentration of 10.0 uM in the Eurofins-Panlabs radioligand binding assay (Eurofins_assay_258590); type: protein-complex assay; conditions: Compound concentration 10.0 uM
# [10] = species: Mus musculus; assay: Inhibition of Phorbol Ester at 10 µM in the Eurofins-Panlabs radioligand binding assay (Eurofins_assay_264500); set-up: ligand concentration 3 nM; conditions: Compound concentration 10.0 uM
# [11] = target: Platelet-activating factor receptor (Homo sapiens) (UniProt P25105); assay: Inhibition of Platelet Activating Factor (PAF) at 10 µM in the Eurofins-Panlabs radioligand binding assay (Eurofins_assay_265010); conditions: Compound concentration 10.0 uM
# [12] = target: ATP-sensitive inward rectifier potassium channel 11 (Cricetulus griseus) (UniProt A0A3L7HHE1); assay: Inhibition of Potassium Channel [KATP] at 10 µM in the Eurofins-Panlabs radioligand binding assay (Eurofins_assay_265600); conditions: Cricetinae; Compound concentration 10.0 uM
# [13] = target: hERG (KCNH2) (Homo sapiens, UniProt Q12809); assay: Inhibition of Potassium Channel hERG at 10 µM in the Eurofins-Panlabs radioligand binding assay (Eurofins_assay_265900); set-up: ligand concentration 1.5 nM, non-specific ligand with concentration Astemizole, incubation time 60 min, incubation temperature 25 °C; conditions: HEK-293 cells that express human recombinant hERG, probe [3H] Astemizole, compound concentration 10 uM
# [14] = species: Rattus norvegicus; assay: Inhibition of Thyroid Hormone at 10 µM in the Eurofins-Panlabs radioligand binding assay (Eurofins_assay_285900); type: protein assay; conditions: Compound concentration 10.0 uM
# [15] = test system: Platelet; assay: Inhibition of platelet aggregation (human plasma, ADP, Collagen); type: cell-based
# [16] = target: D(1A) dopamine receptor (Homo sapiens) (UniProt P21728); conditions: Compound concentration 10.0 uM
# [17] = target: T1, GABA-A receptor; anion channel (Rattus norvegicus); conditions: Compound concentration 10.0 uM
# [18] = target: T2, Muscarinic acetylcholine receptor M1 (Homo sapiens) (UniProt P11229); conditions: Compound concentration 10.0 uM
# T2 sequence (whole entry): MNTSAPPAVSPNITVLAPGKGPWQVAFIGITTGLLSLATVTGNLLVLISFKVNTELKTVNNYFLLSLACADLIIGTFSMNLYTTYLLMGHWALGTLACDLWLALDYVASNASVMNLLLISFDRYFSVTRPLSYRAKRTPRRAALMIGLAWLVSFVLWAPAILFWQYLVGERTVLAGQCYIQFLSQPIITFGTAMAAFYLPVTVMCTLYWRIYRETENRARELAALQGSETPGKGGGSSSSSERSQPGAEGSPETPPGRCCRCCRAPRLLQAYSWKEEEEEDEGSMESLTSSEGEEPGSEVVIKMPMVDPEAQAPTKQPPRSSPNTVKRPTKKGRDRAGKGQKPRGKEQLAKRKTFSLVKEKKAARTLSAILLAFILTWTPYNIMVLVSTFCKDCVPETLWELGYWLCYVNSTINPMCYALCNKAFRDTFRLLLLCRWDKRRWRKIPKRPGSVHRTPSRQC
# [19] = target: T3, Muscarinic acetylcholine receptor M2 (Homo sapiens) (UniProt P08172); conditions: Compound concentration 10.0 uM
# T3 sequence (whole entry): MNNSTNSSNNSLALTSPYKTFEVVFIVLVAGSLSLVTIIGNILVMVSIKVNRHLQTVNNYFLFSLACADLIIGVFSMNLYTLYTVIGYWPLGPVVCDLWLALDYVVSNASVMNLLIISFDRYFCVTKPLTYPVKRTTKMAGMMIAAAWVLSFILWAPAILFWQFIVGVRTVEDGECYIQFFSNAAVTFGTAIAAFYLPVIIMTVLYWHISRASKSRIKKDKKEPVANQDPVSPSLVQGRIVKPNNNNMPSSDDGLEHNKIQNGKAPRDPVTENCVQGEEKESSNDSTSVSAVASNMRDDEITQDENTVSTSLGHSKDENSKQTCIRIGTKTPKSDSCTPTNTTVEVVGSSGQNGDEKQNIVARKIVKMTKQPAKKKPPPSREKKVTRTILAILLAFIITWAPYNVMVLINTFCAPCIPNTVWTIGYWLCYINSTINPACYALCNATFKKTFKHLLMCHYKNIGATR
# [20] = target: Kappa-type opioid receptor (Homo sapiens) (UniProt P41145); conditions: Compound concentration 10.0 uM
# [21] = target: Sodium-dependent dopamine transporter (Homo sapiens) (UniProt Q01959); conditions: Compound concentration 10.0 uM
# [22] = target: Sodium-dependent noradrenaline transporter (Homo sapiens) (UniProt P23975); conditions: Compound concentration 10.0 uM
# [23] = test system: Platelet; assay: Inhibition of platelet aggregation (human plasma, TRAP-6); type: cell-based
# [24] = target: Beta-3 adrenergic receptor (Homo sapiens) (UniProt P13945); conditions: Compound concentration 10.0 uM
# Beta-3 adrenergic receptor (Homo sapiens), sequence (P13945 whole entry, looked up): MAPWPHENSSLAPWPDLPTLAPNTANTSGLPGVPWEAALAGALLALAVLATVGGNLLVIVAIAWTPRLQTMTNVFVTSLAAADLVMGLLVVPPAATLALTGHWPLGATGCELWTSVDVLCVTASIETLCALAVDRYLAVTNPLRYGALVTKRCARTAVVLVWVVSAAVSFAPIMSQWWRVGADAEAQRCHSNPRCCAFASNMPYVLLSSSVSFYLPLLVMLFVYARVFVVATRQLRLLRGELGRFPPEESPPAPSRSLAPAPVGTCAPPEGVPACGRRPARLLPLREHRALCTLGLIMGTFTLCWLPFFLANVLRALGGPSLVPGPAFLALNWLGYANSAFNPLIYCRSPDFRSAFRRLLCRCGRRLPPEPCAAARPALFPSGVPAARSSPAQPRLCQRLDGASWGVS
# Glucocorticoid receptor (Homo sapiens), sequence (P04150 whole entry): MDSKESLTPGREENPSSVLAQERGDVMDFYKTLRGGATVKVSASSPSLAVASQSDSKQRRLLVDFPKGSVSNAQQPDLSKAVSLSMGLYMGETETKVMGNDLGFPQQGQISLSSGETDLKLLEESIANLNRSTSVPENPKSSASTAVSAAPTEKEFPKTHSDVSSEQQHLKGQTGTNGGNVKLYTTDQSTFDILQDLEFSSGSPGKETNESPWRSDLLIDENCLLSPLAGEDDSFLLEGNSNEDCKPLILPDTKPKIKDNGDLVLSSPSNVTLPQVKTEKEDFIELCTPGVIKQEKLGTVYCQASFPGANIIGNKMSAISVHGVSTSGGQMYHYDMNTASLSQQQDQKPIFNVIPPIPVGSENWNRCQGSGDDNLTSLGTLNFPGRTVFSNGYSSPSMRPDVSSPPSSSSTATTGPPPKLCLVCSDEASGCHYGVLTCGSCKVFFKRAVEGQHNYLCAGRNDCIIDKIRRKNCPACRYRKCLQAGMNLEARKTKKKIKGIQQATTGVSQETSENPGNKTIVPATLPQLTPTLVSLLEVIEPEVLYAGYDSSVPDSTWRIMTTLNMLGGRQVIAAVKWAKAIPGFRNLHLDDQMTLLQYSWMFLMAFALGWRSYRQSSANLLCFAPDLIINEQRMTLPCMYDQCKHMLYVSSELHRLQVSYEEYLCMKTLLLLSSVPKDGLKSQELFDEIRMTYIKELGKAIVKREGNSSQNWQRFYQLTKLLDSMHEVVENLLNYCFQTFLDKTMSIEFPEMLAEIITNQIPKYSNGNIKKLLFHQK
# Epidermal growth factor receptor (Homo sapiens), sequence (P00533 whole entry): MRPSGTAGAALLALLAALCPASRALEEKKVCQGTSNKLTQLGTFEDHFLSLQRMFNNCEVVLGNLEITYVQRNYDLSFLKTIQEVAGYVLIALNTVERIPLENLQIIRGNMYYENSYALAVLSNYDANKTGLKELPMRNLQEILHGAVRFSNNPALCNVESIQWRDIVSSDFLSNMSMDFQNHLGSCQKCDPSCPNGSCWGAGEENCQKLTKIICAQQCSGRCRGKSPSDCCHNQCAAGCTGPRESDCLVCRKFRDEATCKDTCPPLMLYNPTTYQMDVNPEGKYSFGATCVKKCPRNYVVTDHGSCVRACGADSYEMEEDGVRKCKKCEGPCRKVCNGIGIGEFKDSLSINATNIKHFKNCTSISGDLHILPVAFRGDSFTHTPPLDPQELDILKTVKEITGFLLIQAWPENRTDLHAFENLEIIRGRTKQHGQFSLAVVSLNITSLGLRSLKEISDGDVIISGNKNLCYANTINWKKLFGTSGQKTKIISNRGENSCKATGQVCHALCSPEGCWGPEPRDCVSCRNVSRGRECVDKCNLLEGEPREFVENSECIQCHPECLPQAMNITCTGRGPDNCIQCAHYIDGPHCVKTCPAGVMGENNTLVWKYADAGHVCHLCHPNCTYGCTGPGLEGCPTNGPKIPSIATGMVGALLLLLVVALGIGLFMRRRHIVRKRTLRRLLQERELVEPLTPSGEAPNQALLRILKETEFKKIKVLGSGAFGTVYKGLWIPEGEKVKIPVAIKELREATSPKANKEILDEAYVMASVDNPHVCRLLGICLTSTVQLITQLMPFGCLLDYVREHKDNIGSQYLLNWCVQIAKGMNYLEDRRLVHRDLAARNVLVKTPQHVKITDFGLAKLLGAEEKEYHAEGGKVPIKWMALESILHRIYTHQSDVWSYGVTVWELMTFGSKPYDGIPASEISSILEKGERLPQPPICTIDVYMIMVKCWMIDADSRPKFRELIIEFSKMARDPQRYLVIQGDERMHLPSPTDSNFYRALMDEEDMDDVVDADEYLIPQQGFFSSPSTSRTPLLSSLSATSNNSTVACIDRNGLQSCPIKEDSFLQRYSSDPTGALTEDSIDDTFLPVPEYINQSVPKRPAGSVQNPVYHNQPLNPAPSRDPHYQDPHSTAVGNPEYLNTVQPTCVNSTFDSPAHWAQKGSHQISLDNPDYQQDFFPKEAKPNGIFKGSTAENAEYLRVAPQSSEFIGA
# Sodium-dependent noradrenaline transporter (Homo sapiens), sequence (P23975 whole entry): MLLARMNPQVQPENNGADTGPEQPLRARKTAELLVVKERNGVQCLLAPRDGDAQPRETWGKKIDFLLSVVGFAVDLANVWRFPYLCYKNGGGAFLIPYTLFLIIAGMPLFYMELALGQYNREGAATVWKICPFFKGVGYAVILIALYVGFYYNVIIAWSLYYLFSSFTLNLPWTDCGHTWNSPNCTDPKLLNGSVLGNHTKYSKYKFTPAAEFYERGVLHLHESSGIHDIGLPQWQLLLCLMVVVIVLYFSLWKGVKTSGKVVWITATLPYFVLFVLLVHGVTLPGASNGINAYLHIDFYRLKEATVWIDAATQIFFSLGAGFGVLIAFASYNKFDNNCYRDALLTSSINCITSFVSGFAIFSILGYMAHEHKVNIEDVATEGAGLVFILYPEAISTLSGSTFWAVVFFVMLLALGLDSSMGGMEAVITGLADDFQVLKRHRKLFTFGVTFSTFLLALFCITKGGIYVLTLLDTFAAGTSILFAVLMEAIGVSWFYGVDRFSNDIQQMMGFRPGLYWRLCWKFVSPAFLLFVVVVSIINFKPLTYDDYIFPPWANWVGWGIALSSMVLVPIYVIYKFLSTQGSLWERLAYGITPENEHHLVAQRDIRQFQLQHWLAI
# ATP-sensitive inward rectifier potassium channel 11 (Cricetulus griseus), sequence (A0A3L7HHE1 as listed by the source): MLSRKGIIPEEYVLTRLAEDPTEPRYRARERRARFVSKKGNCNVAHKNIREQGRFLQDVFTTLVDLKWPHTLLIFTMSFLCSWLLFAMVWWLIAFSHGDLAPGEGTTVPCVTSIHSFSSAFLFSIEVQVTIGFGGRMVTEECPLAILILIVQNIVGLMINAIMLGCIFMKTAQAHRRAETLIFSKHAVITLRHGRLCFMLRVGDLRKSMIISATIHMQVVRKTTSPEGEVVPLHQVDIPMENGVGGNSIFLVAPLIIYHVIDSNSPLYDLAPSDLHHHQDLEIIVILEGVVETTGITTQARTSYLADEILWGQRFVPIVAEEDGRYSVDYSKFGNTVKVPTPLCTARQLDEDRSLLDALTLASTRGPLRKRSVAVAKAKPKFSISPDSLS
# hERG (KCNH2), sequence (Q12809 whole entry): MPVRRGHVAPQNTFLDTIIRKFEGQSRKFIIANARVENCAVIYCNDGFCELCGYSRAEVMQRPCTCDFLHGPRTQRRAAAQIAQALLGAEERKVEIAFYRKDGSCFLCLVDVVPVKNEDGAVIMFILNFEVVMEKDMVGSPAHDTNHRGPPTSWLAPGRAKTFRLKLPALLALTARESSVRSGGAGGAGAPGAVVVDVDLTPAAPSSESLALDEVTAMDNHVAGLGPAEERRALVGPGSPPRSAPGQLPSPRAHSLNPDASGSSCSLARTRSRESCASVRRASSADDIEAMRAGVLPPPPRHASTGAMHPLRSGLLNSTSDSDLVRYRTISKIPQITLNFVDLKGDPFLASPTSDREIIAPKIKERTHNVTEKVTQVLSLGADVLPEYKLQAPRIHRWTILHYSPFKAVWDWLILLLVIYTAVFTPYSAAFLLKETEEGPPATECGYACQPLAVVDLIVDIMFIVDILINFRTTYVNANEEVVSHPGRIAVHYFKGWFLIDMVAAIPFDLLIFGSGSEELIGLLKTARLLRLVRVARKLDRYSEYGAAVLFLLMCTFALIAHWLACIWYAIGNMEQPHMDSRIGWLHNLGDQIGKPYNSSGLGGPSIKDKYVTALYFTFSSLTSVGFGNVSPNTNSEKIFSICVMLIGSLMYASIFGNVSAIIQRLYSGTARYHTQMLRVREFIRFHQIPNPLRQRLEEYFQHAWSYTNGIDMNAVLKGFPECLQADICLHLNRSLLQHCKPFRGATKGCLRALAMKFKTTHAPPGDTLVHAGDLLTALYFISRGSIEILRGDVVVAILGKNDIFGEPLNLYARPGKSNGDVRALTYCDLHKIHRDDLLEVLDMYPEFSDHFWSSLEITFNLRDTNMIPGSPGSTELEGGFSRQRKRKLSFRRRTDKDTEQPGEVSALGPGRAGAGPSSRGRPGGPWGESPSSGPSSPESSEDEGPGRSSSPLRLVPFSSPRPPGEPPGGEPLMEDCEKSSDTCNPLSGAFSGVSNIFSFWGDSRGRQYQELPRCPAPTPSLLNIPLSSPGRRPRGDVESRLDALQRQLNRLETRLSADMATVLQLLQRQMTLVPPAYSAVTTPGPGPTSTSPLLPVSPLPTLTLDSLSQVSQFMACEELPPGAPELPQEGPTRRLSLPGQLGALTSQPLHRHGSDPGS
# Neuropeptide Y receptor type 1 (Homo sapiens), sequence (P25929 whole entry): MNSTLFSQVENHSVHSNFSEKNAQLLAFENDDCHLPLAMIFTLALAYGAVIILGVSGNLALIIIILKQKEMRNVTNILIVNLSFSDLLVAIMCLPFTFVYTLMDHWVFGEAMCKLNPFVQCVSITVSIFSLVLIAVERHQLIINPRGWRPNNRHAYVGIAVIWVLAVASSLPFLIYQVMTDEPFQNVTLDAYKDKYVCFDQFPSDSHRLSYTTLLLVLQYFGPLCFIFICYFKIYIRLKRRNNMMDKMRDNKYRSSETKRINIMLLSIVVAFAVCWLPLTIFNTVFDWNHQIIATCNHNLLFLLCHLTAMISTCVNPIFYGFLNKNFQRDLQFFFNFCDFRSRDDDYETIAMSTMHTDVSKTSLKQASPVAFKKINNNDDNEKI
smiles,measurement,setting,value
O=C(N1CCS(=O)(=O)CC1)N1C[C@H](c2ccc(OC(F)(F)F)cc2)C[C@H](c2nc(C3CC3)no2)C1 [BAY-386],inhibition,[1],-7%
same,inhibition,[2],10%
same,inhibition,[3],9%
same,inhibition,[4],15%
same,inhibition,[5],0%
same,inhibition,[6],1%
same,inhibition,[7],14%
same,inhibition,[8],1%
same,inhibition,[9],-4%
same,inhibition,[10],5%
same,inhibition,[11],0%
same,inhibition,[12],4%
same,"inhibition at 60 min, 10 µM",[13],22% (not active)
same,inhibition,[14],11%
same,IC50,[15],> 100 µM (not active)
same,inhibition,[16],4%
same,inhibition,[17],-3%
same,inhibition,[18],-3%
same,inhibition,[19],-3%
same,inhibition,[20],-3%
same,inhibition,[21],10%
same,inhibition,[22],17%
Cc1noc([C@H]2C[C@@H](c3ccc(C(F)(F)F)cc3)CN(C(=O)N3CCS(=O)(=O)C3)C2)n1 [BAY-448],IC50,[23],> 10 µM (not active)
same,inhibition,[24],19.3%
